A value given as a limit tells only on which side of the number the result lay.

One test addresses T1, recombinant HPK1 protein (Homo sapiens, UniProt Q92918).
T1 construct: purchased Promega V6398
T1 sequence (Q92918 1-346 limits assumed): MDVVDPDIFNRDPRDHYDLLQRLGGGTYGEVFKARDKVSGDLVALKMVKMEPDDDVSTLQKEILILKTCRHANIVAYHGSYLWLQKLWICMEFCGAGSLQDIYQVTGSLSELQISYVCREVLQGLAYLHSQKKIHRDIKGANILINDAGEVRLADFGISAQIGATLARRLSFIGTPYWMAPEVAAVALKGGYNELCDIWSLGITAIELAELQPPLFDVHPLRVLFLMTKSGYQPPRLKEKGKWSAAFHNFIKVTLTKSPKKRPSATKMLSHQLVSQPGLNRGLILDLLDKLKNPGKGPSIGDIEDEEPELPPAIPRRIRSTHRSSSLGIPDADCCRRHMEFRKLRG
Description: Primary assay of HPK1 enzymatic activity inhibition (ADP-Glo luminescence). Format: biochemical. The conditions noted are these: recombinant HPK1, MBP substrate, 1 hour at room temperature. Background: ADP-Glo first removes unused ATP, then detects ADP through luciferase.

Another test deals with Jurkat cells. Description: IL-2 release Jurkat assay (anti-CD3/anti-CD28 stimulation, IL-2 ELISA). In kind it is cell-based, human. The conditions noted are these: activation with 400 ng/mL aCD3 + 400 ng/mL aCD28, 24 hours.
Where [1] appears, read: Table B: Jurkat, 1.5 μM of tested compounds.
[2] abbreviates: Table C: Jurkat, 6 μM of tested compounds, stimulated vehicle = A.

By IC50 is commonly meant the concentration that inhibits the measured activity by half. As to `CNC(=O)c1cnc(Nc2ccc(S(C)(=O)=O)c(F)c2)nc1N[C@H](CO)c1ccccc1` [Compound 105, 2-{[3-fluoro-4-(methylsulfonyl)phenyl]amino}-4-{[(1S)-2-hydroxy-1-phenylethyl]amino}-N-methylpyrimidine-5-carboxamide], the IC50 at recombinant HPK1 protein was 50 to 200 nM. In addition, the “IL-2, pg/mL stimulated” value in the test on Jurkat cells (setting [1]) is recorded as “C (25.0 pg/mL≤IL-2<35.0 pg/mL)”.
As to `CCNC(=O)c1cnc(Nc2ccc3c(c2)CCN(C)C3=O)nc1N[C@H](CO)c1ccccc1` [Compound 119, N-ethyl-4-{[(1S)-2-hydroxy-1-phenylethyl]amino}-2-[(2-methyl-1-oxo-1,2,3,4-tetrahydroisoquinolin-6-yl)amino]pyrimidine-5-carboxamide], the IC50 at recombinant HPK1 protein is less than 50 nM. The “IL-2, pg/mL stimulated” value in the test on Jurkat cells (setting [1]) is “D (35.0 pg/mL≤IL-2)”.
On to `CCOC(=O)c1cnc(Nc2ccc3c(c2)CCN(C)C3=O)nc1N[C@H](CO)c1ccccc1` [Compound 122, Ethyl 4-{[(1S)-2-hydroxy-1-phenylethyl]amino}-2-[(2-methyl-1-oxo-1,2,3,4-tetrahydroisoquinolin-6-yl)amino]pyrimidine-5-carboxylate], for which, on recombinant HPK1 protein, the IC50 is less than 50 nM. Also, in the test on Jurkat cells (setting [1]), the “IL-2, pg/mL stimulated” value is recorded as “C (25.0 pg/mL≤IL-2<35.0 pg/mL)”.
As to `CCOC(=O)c1cnc(Nc2ccc(C(=O)N(C)C)c(C)c2)nc1N[C@H](CO)c1ccccc1` [Compound 125, Ethyl 2-[4-(dimethylcarbamoyl)-3-methyl-anilino]-4-[[(1S)-2-hydroxy-1-phenyl-ethyl]amino]pyrimidine-5-carboxylate], the IC50 on recombinant HPK1 protein was 200 to 500 nM. Besides, the “IL-2, pg/mL stimulated” value in the test with Jurkat cells (Table D: Jurkat, 6 μM of tested compounds, stimulated vehicle = B) is listed as “D (150 pg/mL≤IL-2)”.
Turning to `CCNC(=O)c1cnc(Nc2ccc(S(C)(=O)=O)c(C)c2)nc1N[C@H](CO)c1ccccc1` [Compound 156, N-ethyl-4-{[(1S)-2-hydroxy-1-phenylethyl]amino}-2-{[3-methyl-4-(methylsulfonyl)phenyl]amino}pyrimidine-5-carboxamide], on recombinant HPK1 protein, the IC50 lay in the range of 50 to 200 nM. In the test with Jurkat cells (setting [1]), the “IL-2, pg/mL stimulated” value is “C (25.0 pg/mL≤IL-2<35.0 pg/mL)”.
For `Cc1cc(Nc2ncc(C(=O)N(C)C)c(N[C@H](CO)c3ccccc3)n2)ccc1S(C)(=O)=O` [Compound 157, 4-[[(1S)-2-hydroxy-1-phenyl-ethyl]amino]-N,N-dimethyl-2-(3-methyl-4-methylsulfonyl-anilino)pyrimidine-5-carboxamide], the IC50 on recombinant HPK1 protein was 200 to 500 nM. Moreover, in the test with Jurkat cells (setting [2]), the “IL-2, pg/mL stimulated” value is on record as “C (100 pg/mL≤IL-2<150 pg/mL)”.
With `CCOC(=O)c1cnc(Nc2ccc(S(C)(=O)=O)c(C)c2)nc1N[C@H](CO)c1ccccc1` [Compound 166, Ethyl 4-{[(1S)-2-hydroxy-1-phenylethyl]amino}-2-{[3-methyl-4-(methylsulfonyl)phenyl]amino}pyrimidine-5-carboxylate], the half-maximal inhibitory concentration (IC50) at recombinant HPK1 protein is less than 50 nM. Besides, the “IL-2, pg/mL stimulated” value in the test on Jurkat cells (setting [1]) is “C (25.0 pg/mL≤IL-2<35.0 pg/mL)”.
As to `CCOC(=O)c1cnc(Nc2ccc(S(C)(=O)=O)cc2C)nc1N[C@H](CO)c1ccccc1` [Compound 167, Ethyl 4-{[(1S)-2-hydroxy-1-phenylethyl]amino}-2-{[2-methyl-4-(methylsulfonyl)phenyl]amino}pyrimidine-5-carboxylate], the IC50 on recombinant HPK1 protein fell in the range of 200 to 500 nM. The “IL-2, pg/mL stimulated” value with Jurkat cells (setting [2]) is “B (50 pg/mL≤IL-2<100 pg/mL)”.
The corresponding values for `CCOC(=O)c1cnc(Nc2ccc(S(=O)(=O)CC)cc2)nc1N[C@H](CO)c1ccccc1` [Compound 168, Ethyl 2-{[4-(ethylsulfonyl)phenyl]amino}-4-{[(1S)-2-hydroxy-1-phenylethyl]amino}pyrimidine-5-carboxylate] are 50 to 200 nM and “A (IL-2<50 pg/mL)”.
As for `CCNC(=O)c1cnc(Nc2ccc(F)c(-c3ccccc3)c2)nc1N[C@H](CO)c1ccccc1` [Compound 189, N-ethyl-2-[(6-fluorobiphenyl-3-yl)amino]-4-{[(1S)-2-hydroxy-1-phenylethyl]amino}pyrimidine-5-carboxamide], the IC50 at recombinant HPK1 protein is 200 to 500 nM. Besides, the “IL-2, pg/mL stimulated” value in the test with Jurkat cells (setting [1]) is on record as “C (25.0 pg/mL≤IL-2<35.0 pg/mL)”.
The corresponding values for `CCOC(=O)c1cnc(Nc2ccc(F)c(-c3ccccc3)c2)nc1N[C@H](CO)c1ccccc1` [Compound 195, Ethyl 2-[(6-fluorobiphenyl-3-yl)amino]-4-{[(1S)-2-hydroxy-1-phenylethyl]amino}pyrimidine-5-carboxylate] are 200 to 500 nM and “C (25.0 pg/mL≤IL-2<35.0 pg/mL)”.
The corresponding values for `CCOC(=O)c1cnc(Nc2ccc(S(C)(=O)=O)c(F)c2)nc1N[C@H](CO)c1ccccc1` [Compound 210, Ethyl 2-{[3-fluoro-4-(methylsulfonyl)phenyl]amino}-4-{[(1S)-2-hydroxy-1-phenylethyl]amino}pyrimidine-5-carboxylate] are 200 to 500 nM and “D (35.0 pg/mL≤IL-2)”.
For the compound `CCOC(=O)c1cnc(Nc2ccc(S(C)(=O)=O)cc2F)nc1N[C@H](CO)c1ccccc1` [Compound 211, Ethyl 2-{[2-fluoro-4-(methylsulfonyl)phenyl]amino}-4-{[(1S)-2-hydroxy-1-phenylethyl]amino}pyrimidine-5-carboxylate], on recombinant HPK1 protein, the IC50 is 50 to 200 nM. The “IL-2, pg/mL stimulated” value in the test on Jurkat cells (setting [2]) is “B (50 pg/mL≤IL-2<100 pg/mL)”.
On to `CC(C)NC(=O)c1cnc(Nc2ccc3c(c2)CCN(C)C3=O)nc1N[C@H](CO)c1ccccc1` [Compound 212, 4-{[(1S)-2-hydroxy-1-phenylethyl]amino}-2-[(2-methyl-1-oxo-1,2,3,4-tetrahydroisoquinolin-6-yl)amino]-N-(propan-2-yl)pyrimidine-5-carboxamide], for which the IC50 on recombinant HPK1 protein fell in the range of 50 to 200 nM. Besides, the “IL-2, pg/mL stimulated” value with Jurkat cells (setting [1]) is “C (25.0 pg/mL≤IL-2<35.0 pg/mL)”.
As to `CCOC(=O)c1cnc(Nc2ccc3c(c2)CCN(CC)C3=O)nc1N[C@H](CO)c1ccccc1` [Compound 218, Ethyl 2-[(2-ethyl-1-oxo-3,4-dihydroisoquinolin-6-yl)amino]-4-[[(1S)-2-hydroxy-1-phenyl-ethyl]amino]pyrimidine-5-carboxylate], the IC50 at recombinant HPK1 protein was in the range of 50 to 200 nM. Also, the “IL-2, pg/mL stimulated” value in the test on Jurkat cells (setting [2]) is on record as “D (150 pg/mL≤IL-2)”.
The corresponding values for `CCOC(=O)c1cnc(Nc2ccc(C(=O)N(C)C)c(Cl)c2)nc1N[C@H](CO)c1ccccc1` [Compound 266, Ethyl 2-[3-chloro-4-(dimethylcarbamoyl)anilino]-4-[[(1S)-2-hydroxy-1-phenyl-ethyl]amino]pyrimidine-5-carboxylate] are 200 to 500 nM and “C (100 pg/mL≤IL-2<150 pg/mL)”.
As for `Cc1cc(Nc2ncc(C(=O)NC(C)C)c(N[C@H](CO)c3ccccc3)n2)ccc1S(C)(=O)=O` [Compound 267, 4-{[(1S)-2-hydroxy-1-phenylethyl]amino}-2-{[3-methyl-4-(methylsulfonyl)phenyl]amino}-N-(propan-2-yl)pyrimidine-5-carboxamide], the IC50 on recombinant HPK1 protein lay in the range of 50 to 200 nM. The “IL-2, pg/mL stimulated” value in the test with Jurkat cells (setting [1]) was “D (35.0 pg/mL≤IL-2)”.
For the compound `CCOC(=O)c1cnc(Nc2ccc(S(=O)(=O)C(C)C)cc2)nc1N[C@H](CO)c1ccccc1` [Compound 274, Ethyl 4-{[(1S)-2-hydroxy-1-phenylethyl]amino}-2-{[4-(propan-2-ylsulfonyl)phenyl]amino}pyrimidine-5-carboxylate], the IC50 at recombinant HPK1 protein was in the range of 200 to 500 nM. Also, in the test with Jurkat cells (setting [2]), the “IL-2, pg/mL stimulated” value is “B (50 pg/mL≤IL-2<100 pg/mL)”.
For the compound `CC(C)NC(=O)c1cnc(Nc2ccc(F)c(-c3ccccc3)c2)nc1N[C@H](CO)c1ccccc1` [Compound 293, 2-[(6-fluorobiphenyl-3-yl)amino]-4-{[(1S)-2-hydroxy-1-phenylethyl]-amino}-N-(propan-2-yl)pyrimidine-5-carboxamide], at recombinant HPK1 protein, the IC50 lay in the range of 200 to 500 nM. Besides, the “IL-2, pg/mL stimulated” value with Jurkat cells (setting [1]) was “D (35.0 pg/mL≤IL-2)”.
As to `CCOC(=O)c1cnc(Nc2ccc(S(C)(=O)=O)c(OC)c2)nc1N[C@H](CO)c1ccccc1` [Compound 300, Ethyl 4-{[(1S)-2-hydroxy-1-phenylethyl]amino}-2-{[3-methoxy-4-(methylsulfonyl)phenyl]amino}pyrimidine-5-carboxylate], the IC50 on recombinant HPK1 protein lay within 50 to 200 nM. Moreover, the “IL-2, pg/mL stimulated” value in the test on Jurkat cells (setting [2]) was “A (IL-2<50 pg/mL)”.
In the case of `CC(C)NC(=O)c1cnc(Nc2ccc(S(C)(=O)=O)c(F)c2)nc1N[C@H](CO)c1ccccc1` [Compound 301, 2-{[3-fluoro-4-(methylsulfonyl)phenyl]amino}-4-{[(1S)-2-hydroxy-1-phenylethyl]amino}-N-(propan-2-yl)pyrimidine-5-carboxamide], on recombinant HPK1 protein, the IC50 lay in the range of 200 to 500 nM. Also, the “IL-2, pg/mL stimulated” value with Jurkat cells (setting [1]) is given as “A (IL-2<5.0 pg/mL)”.
In the case of `CS(=O)(=O)c1ccc(Nc2ncc(C(=O)OCCO)c(N[C@H](CO)c3ccccc3)n2)cc1F` [Compound 319], the IC50 on recombinant HPK1 protein is less than 50 nM. The “IL-2, pg/mL stimulated” value in the test with Jurkat cells (setting [2]) is on record as “D (150 pg/mL≤IL-2)”.
The corresponding values for `COCCNC(=O)c1cnc(Nc2ccc(S(C)(=O)=O)c(C)c2)nc1N[C@H](CO)c1ccccc1` [Compound 372, 4-[[(1S)-2-hydroxy-1-phenyl-ethyl]amino]-N-(2-methoxyethyl)-2-(3-methyl-4-methylsulfonyl-anilino)pyrimidine-5-carboxamide] are 200 to 500 nM and “C (100 pg/mL≤IL-2<150 pg/mL)”.
Regarding `CN1CCc2cc(Nc3ncc(C(=O)NC4CCCC4)c(N[C@H](CO)c4ccccc4)n3)ccc2C1=O` [Compound 389, N-cyclopentyl-4-{[(1S)-2-hydroxy-1-phenylethyl]amino}-2-[(2-methyl-1-oxo-1,2,3,4-tetrahydroisoquinolin-6-yl)amino]pyrimidine-5-carboxamide], the IC50 at recombinant HPK1 protein is 50 to 200 nM. In the test on Jurkat cells (setting [1]), the “IL-2, pg/mL stimulated” value was “C (25.0 pg/mL≤IL-2<35.0 pg/mL)”.
